We go through 1 molecule from patent publication US11414379B2, “SPAK kinase inhibitors as neuroprotective agents” (United States Government as represented by the Department …, priority 2018, dated 2022).

The subject of test [1] is SPAK Ser373, NKCC1 Thr203/207/212 and KCCs phosphorylation. The test is described as follows: Phosphorylation immunoblot in HEK293 cells. It is filed as cell-based, human. Here is the method:
(§1) HEK293 (human embryonic kidney 293) cells were cultured on 10-cm-diameter dishes in DMEM supplemented with 10% (v/v) foetal bovine serum, 2 mM L-glutamine, 100 U/ml penicillin and 0.1 mg/ml streptomycin. HEK293 cells were transfected with a mixture of 20 μl of 1 mg/ml polyethylenimine (Polysciences) and 5-10 μg of plasmid DNA as described previously (Durocher et al., 2002). 36 hours post-transfection cells were stimulated with either control isotonic or hypotonic medium for a period of 30 minutes. Cells were lysed in 0.3 mL of ice-cold lysis buffer/dish, lysates were clarified by centrifugation at 4° C. for 15 minutes at 26,000 g and the supernatant aliquots were frozen in liquid nitrogen and stored at −20° C. Protein concentrations were determined using the Bradford method. Cells were treated with the indicated concentrations of the SPAK/OSR1 inhibitors. […] Hypotonic low chloride buffer was 67.5 mM sodium-gluconate, 2.5 mM potassium-gluconate, 0.25 mM CaCl2), 0.25 mM MgCl2, 0.5 mM Na2HPO4, 0.5 mM Na2SO4 and 7.5 mM HEPES (pH 7.5).
The membranes were incubated for 30 min with TBST (Tris-buffered saline, 0.05% Tween-20) containing 5% (w/v) skim milk. […] After repeating the washing steps, signals were detected with enhanced chemiluminescence reagent. […] The densities of bands were measured with ImageJ. […]
In general terms: Immunoblotting shows a protein as a band on a membrane.

In another test the test system is pSPAK. Nature of the test: IVH-induced phosphorylation in rat choroid plexus, ICV delivery. Format: in vivo. To be noted: 48 hrs post-IVH, n=3.
The test system of test [2] is Ang II-mediated hypertensive mice, pdMCAO. Nature of the test: Infarct volume and hemispheric swelling after pdMCAO in Ang II-infused mice. It is filed as in vivo, mouse. To be noted: Ang II-infused mice (male or female); 2.5 mg/kg i.p. at 3 and 8 hrs after pdMCAO; 24 hrs; vs Veh. Here is the method:
C57BL/6J mice received subcutaneous (s.c.) infusion of either saline or AngII via osmotic minipumps (model 1004, Alzet) at a rate of 1000 ng/kg/min for 14 days. BP was measured in awake mice by a tail-cuff method (Kent Scientific) as described previously (Huang et al. (2019) Stroke. 50:1021-1025).
Saline-infused control and Ang II-mediated HTN mice were subsequently underwent permanent occlusion of the distal branches of the middle cerebral artery (pdMCAO) as described previously (Huang et al. (2019) Stroke. 50:1021-1025). Under isoflurane anesthesia, a skin incision at the midline of the neck was made and the left CCA was exposed and occluded by ligation and the skin was sutured. Another skin incision (1 cm) was made between the left eye and the ear using fine operation scissors. The temporal muscle was identified and detached from the skull in its apical and dorsal part without totally removing the muscle by the forceps. The MCA below the transparent skull in the rostral part of the temporal area, dorsal to the retro-orbital sinus was identified. If the MCA bifurcation was not visible (due to an anatomical normal variation), the most rostral vessel was identified. […] The artery, proximal and distal to the MCA bifurcation, was coagulated with the electrocoagulation forceps (in a bipolar mode at 7 W). […] The animal was placed in a cage and monitored for recovery from anesthesia. […]

A further test relates to KCC2 pThr1007. The test is described as follows: Phosphorylation immunoblot in KCC2-transfected HEK293 cells. To be noted: concentration inhibiting phosphorylation. Format: cell-based, human. Here is the method:
as §1
(§2) The membranes were incubated for 30 min with TBST (Tris-buffered saline, 0.05% Tween-20) containing 5% (w/v) skim milk. The blots were then washed six times with TBST and incubated for 1 hour at room temperature with secondary HRP-conjugated antibodies diluted 5000-fold in 5% (w/v) skim milk in TBST. After repeating the washing steps, signals were detected with enhanced chemiluminescence reagent. Immunoblots were developed using a film automatic processor (SRX-101; Konica Minolta Medical) and films were scanned at 600 dpi (PowerLook 1000; UMAX). Figures were generated using Photoshop/Illustrator (Adobe). The densities of bands were measured with ImageJ. For phospho-antibody immunoprecipitation, KCC isoforms were immunoprecipitated from indicated cell extracts. 2 mg of the indicated clarified cell extract were mixed with 15 μg of the indicated phospho-specific KCC antibody conjugated to 15 μl of protein-G-Sepharose, in the added presence of […] of the dephosphorylated form of the phosphopeptide antigen, and incubated 2 hours at 4° C. with gentle shaking. Immunoprecipitates were washed three times with 1 mL of lysis buffer containing 0.15 M NaCl and twice with 1 ml of buffer A. Bound proteins were eluted with 1×LDS sample buffer.
(§3) HEK293 cells were transfected with a DNA construct encoding wild type N-terminally FLAG-tagged KCC2. 36 hrs post-transfection, cells were exposed 30 min to either control isotonic or hypotonic low [C1^−] conditions, then treated in the same conditions for an additional 30 min with the indicated inhibitors at the concentrations noted. Cell lysates were subjected to SDS-PAGE and Western blotting with the indicated antibodies. See FIG. 3 for Western blot quantitation.
(§4) Referring to FIG. 2, concentration-response experiments testing effects of Closantel analogs on phosphorylation of KCC2 Thr906/Thr1007 are shown. HEK293 cells were transfected with DNA construct encoding wild type N-terminally FLAG-tagged KCC2. 36 h post-transfection, cells were exposed 30 min to either control isotonic conditions or hypotonic low Cl^− conditions, then treated in the same conditions with the specified inhibitors (1b, 1c, 1f, 1d, 1h, and 1g, respectively) at the indicated concentrations for an additional 30 min. Lysates were subjected to SDS-PAGE and Western blotting with the indicated antibodies.
(§5) Referring to FIG. 3, HEK293 cells were transfected with the DNA construct encoding wild type N-terminally FLAG-tagged KCC2. 36 h post-transfection, cells were exposed 30 min to either control isotonic or hypotonic low Cl^− conditions, then treated in the same conditions with the specified inhibitors at the indicated concen-trations for an additional 30 min. Lysates were subjected to SDS-PAGE and Western blotting with the indicated antibodies. Closantel, STOCK1S-14279 and STOCK1S-50699 were used as reference compounds.

A further test deals with SPAK pSer373. The description is as above. It is filed as cell-based, human. To be noted: concentration inhibiting phosphorylation. As for the experimental part:
as §1, §2, §3, §4, §5

Molecules are shown by their SMILES.

Take `Cc1cc(C(C#N)c2ccc(Cl)cc2)c(Cl)cc1NC(=O)c1cc(Cl)ccc1O` (stereo not drawn) [ZT-1a, 5-chloro-N-(5-chloro-4-((4-chlorophenyl)(cyano)methyl)-2-methylphenyl)-2-hydroxy-benzamide]: the “concentration inhibiting phosphorylation of SPAK Ser373, NKCC1 Thr203/207/212 and KCCs” value in test [1] came to 3 µM. Also, the “effect on SPAK/OSR1 Ser373/Ser325 and NKCC1 Thr203/Thr207/Thr212 phosphorylation” value in test [1] (dose-dependent (1-10), hypotonic low Cl- and isotonic conditions) was “markedly inhibited”. Further, the “reduction of IVH-induced expression of pSPAK” value in the test on pSPAK is on record as 55±3.6%. Also, in test [2], the “decrease of hemispheric swelling” value is given as about 50% and the “decrease of infarct volume” value was about 50%. Further, the “KCC2 pThr1007 (μM) hypo” value in the test with KCC2 pThr1007 (hypotonic low Cl- conditions) is recorded as 3 μM. Also, the “KCC2 pThr1007 (μM) Iso” value with KCC2 pThr1007 (isotonic conditions) is 1 μM. Moreover, the “SPAK pSer373 (μM) hypo” value in the test with SPAK pSer373 (hypotonic low Cl- conditions) was found to be 3 μM. In addition, in the test on SPAK pSer373 (isotonic conditions), the “SPAK pSer373 (μM) Iso” value amounted to 1 μM.
